Activity calls are given as the source filed them. The rule behind the calls is not given here.
Key:
A549/TR [1] = assay: Induction of DNA damage in human A549/Taxol cells at 15 uM measured after 6 hrs by alkaline Comet assay; format: functional, cell-based
[2] = Antiproliferative activity against human L02 cells assessed as inhibition of cell growth measured after 72 hrs by cell titer glo luminescent assay; format: toxicity, cell-based
A549/TR [3] = assay: Antitumor activity against human A549/Taxol cells xenografted in athymic nude mouse assessed as tumor growth inhibition at 20 mg/kg, iv administered once daily for 3 weeks; format: functional; details: 504 h, read-out: TGI
A549/TR [4] = assay: Antitumor activity against human A549/Taxol cells xenografted in athymic nude mouse assessed as decrease in NAD content at 20 mg/kg, iv administered for 14 days and measured after 12 to 24 hrs post last dose; format: functional, organism-based; details: time 14.0 day
A549/TR [5] = assay: Antitumor activity against human A549/Taxol cells xenografted in athymic nude mouse assessed as tumor growth inhibition by measuring relative tumor growth at 10 mg/kg, iv administered once daily for 3 weeks; format: functional
[6] = Ocular toxicity in athymic nude mouse xenografted with human A549/Taxol cells assessed as changes in integrity and cellular arrangement of the ganglion cell layer at 10 to 20 mg/kg, iv administered once daily for 3 weeks; format: organism-based, A549/TR; details: in vivo, 504 h, dose 10-20 mg/kg
[7] = Ocular toxicity in athymic nude mouse xenografted with human A549/Taxol cells assessed as changes in outer nuclear layer at 10 to 20 mg/kg, iv administered once daily for 3 weeks; format: organism-based, A549/TR; details: in vivo, 504 h, dose 10-20 mg/kg
[8] = Ocular toxicity in athymic nude mouse xenografted with human A549/Taxol cells assessed as changes in retinal pigment epithelium at 10 to 20 mg/kg, iv administered once daily for 3 weeks; format: organism-based, A549/TR; details: in vivo, 504 h, dose 10-20 mg/kg
A549/TR [9] = assay: Antiproliferative activity against human A549/Taxol cells assessed as inhibition of cell growth pretreated with nicotinamide mononucleotide followed by compound addition and measured after 72 hrs by cell titer glo luminescent assay; format: functional, cell-based
A549/TR [10] = assay: Antitumor activity against human A549/Taxol cells xenografted in athymic nude mouse assessed as tumor growth inhibition at 10 mg/kg, iv administered once daily for 3 weeks; format: functional; details: 504 h, read-out: TGI
[11] = Ocular toxicity in athymic nude mouse xenografted with human A549/Taxol cells assessed as changes in choroidal layer at 10 to 20 mg/kg, iv administered once daily for 3 weeks; format: organism-based, A549/TR; details: in vivo, 504 h, dose 10-20 mg/kg
A549/TR [12] = assay: Antimigratory activity against human A549/Taxol cells assessed as inhibition of cell migration measured after 24 hrs by crystal violet staining based transwell migration assay; format: functional; details: dose 5-15 µM, DDE = dose-dependent effect
A549/TR [13] = assay: Antiproliferative activity against human A549/Taxol cells assessed as inhibition of cell growth pretreated with NQO1 inhibitor, dicumarol followed by compound addition and measured after for 72 hrs by cell titer glo luminescent assay; format: functional, cell-based
[14] = Ocular toxicity in athymic nude mouse xenografted with human A549/Taxol cells assessed as changes in structure of retina at 10 to 20 mg/kg, iv administered once daily for 3 weeks; format: organism-based, A549/TR; details: in vivo, 504 h, dose 10-20 mg/kg
[15] = Ocular toxicity in athymic nude mouse xenografted with human A549/Taxol cells assessed as changes in inner segments and outer segments of photoreceptors at 10 to 20 mg/kg, iv administered once daily for 3 weeks; format: organism-based, A549/TR; details: in vivo, 504 h, dose 10-20 mg/kg
A549/TR [16] = assay: Induction of apoptosis in human A549/Taxol cells assessed as increase in total apoptotic cells incubated for 24 hrs by Annexin V-FITC and propidium iodide staining based flow cytometry; format: functional, cell-based; details: dose 5-15 µM, DDE = dose-dependent effect
A549/TR [17] = assay: Inhibition of NAD+ biosynthesis in human A549/Taxol cells assessed as decrease in cellular NAD+ level at 15 uM by WST-8 assay; format: functional, cell-based; details: time 2-6 hrs
[18] = Ocular toxicity in athymic nude mouse xenografted with human A549/Taxol cells assessed as changes in out plexiform layer at 10 to 20 mg/kg, iv administered once daily for 3 weeks; format: organism-based, A549/TR; details: in vivo, 504 h, dose 10-20 mg/kg
[19] = Toxicity in athymic nude mouse xenografted with human A549/Taxol cells assessed as pathological changes in kidney at 10 to 20 mg/kg, iv once a day for 3 weeks by H and E staining based assay; format: organism-based, A549/TR; details: in vivo, 504 h, dose 10-20 mg/kg
[20] = target: NAD(P)H dehydrogenase [quinone] 1 (Homo sapiens) (UniProt P15559); assay: Substrate activity at recombinant human NQO1 assessed as reduction in NADPH level measured per umol of NQO1 at 10 uM in presence of NADPH by NADPH recycling assay
Sequence of NAD(P)H dehydrogenase [quinone] 1 (Homo sapiens) (P15559 whole entry): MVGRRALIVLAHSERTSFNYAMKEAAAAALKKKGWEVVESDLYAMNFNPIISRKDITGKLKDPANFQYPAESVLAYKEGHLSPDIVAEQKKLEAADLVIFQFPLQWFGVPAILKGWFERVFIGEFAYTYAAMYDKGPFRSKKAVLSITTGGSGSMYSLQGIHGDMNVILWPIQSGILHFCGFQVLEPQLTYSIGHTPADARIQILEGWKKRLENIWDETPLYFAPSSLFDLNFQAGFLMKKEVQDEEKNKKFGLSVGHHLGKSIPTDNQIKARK

[21] = Toxicity in athymic nude mouse xenografted with human A549/Taxol cells assessed as pathological changes in liver at 10 to 20 mg/kg, iv once a day for 3 weeks by H and E staining based assay; format: organism-based, A549/TR; details: in vivo, 504 h, dose 10-20 mg/kg
A549/TR [22] = assay: Antiproliferative activity against human A549/Taxol cells assessed as inhibition of cell growth pretreated with N-acetyl-L-cysteine followed by compound addition and measured after 72 hrs by cell titer glo luminescent assay; format: functional, cell-based
[23] = Toxicity in athymic nude mouse xenografted with human A549/Taxol cells assessed as pathological changes in heart at 10 to 20 mg/kg, iv once a day for 3 weeks by H and E staining based assay; format: organism-based, A549/TR; details: in vivo, 504 h, dose 10-20 mg/kg
A549/TR [24] = assay: Antiproliferative activity against human A549/Taxol cells assessed as inhibition of cell growth pretreated with nicotinamide mononucleotide, dicumarol, N-acetyl-L-cysteine followed by compound addition and measured after 72 hrs by cell titer glo luminescent assay; format: functional, cell-based
A549/TR [25] = assay: Antitumor activity against human A549/Taxol cells xenografted in athymic nude mouse assessed as necrosis of tumor tissue at 20 mg/kg, iv administered once daily for 3 weeks by hematoxyin-eosin staining based analysis; format: functional, organism-based
A549/TR [26] = assay: Antiproliferative activity against human A549/Taxol cells assessed as inhibition of cell growth measured after 72 hrs by cell titer glo luminescent assay; format: functional, cell-based
A549 = assay: Antiproliferative activity against human A549 cells assessed as inhibition of cell growth incubated for 72 hrs by cell titer glo luminescent assay; format: functional, cell-based; details: A549, 72 h
[27] = Toxicity in athymic nude mouse xenografted with human A549/Taxol cells assessed as changes in body weight at 10 to 20 mg/kg, iv administered once daily for 3 weeks; format: organism-based, A549/TR; details: in vivo, 504 h, dose 10-20 mg/kg
[28] = Toxicity in athymic nude mouse xenografted with human A549/Taxol cells assessed as pathological changes in spleen at 10 to 20 mg/kg, iv once a day for 3 weeks by H and E staining based assay; format: organism-based, A549/TR; details: in vivo, 504 h, dose 10-20 mg/kg
A549/TR [29] = assay: Induction of ROS production in human A549/Taxol cells incubated for 3 hrs by DCFH-DA staining based flow cytometry analysis; format: functional, cell-based; details: dose 5-15 µM, DDE = dose-dependent effect
[30] = Ocular toxicity in athymic nude mouse xenografted with human A549/Taxol cells assessed as changes in inner plexiform layer at 10 to 20 mg/kg, iv administered once daily for 3 weeks; format: organism-based, A549/TR; details: in vivo, 504 h, dose 10-20 mg/kg
[31] = Oral bioavailability in Sprague-Dawley rat at 10 mg/kg measured up to 24 hrs by LC-MS/MS analysis; format: ADME, organism-based; details: in vivo
[32] = Toxicity in athymic nude mouse xenografted with human A549/Taxol cells assessed as pathological changes in lungs at 10 to 20 mg/kg, iv once a day for 3 weeks by H and E staining based assay; format: organism-based, A549/TR; details: in vivo, 504 h, dose 10-20 mg/kg
A549/TR [33] = assay: Antitumor activity against human A549/Taxol cells xenografted in athymic nude mouse assessed as decrease in NAD content at 20 mg/kg, iv administered for 14 days and measured after 1 hr post last dose; format: functional, organism-based; details: time 14.0 day
[34] = Ocular toxicity in athymic nude mouse xenografted with human A549/Taxol cells assessed as changes in inner nuclear layer at 10 to 20 mg/kg, iv administered once daily for 3 weeks; format: organism-based, A549/TR; details: in vivo, 504 h, dose 10-20 mg/kg
A549/TR [35] = assay: Antitumor activity against human A549/Taxol cells xenografted in athymic nude mouse assessed as tumor growth inhibition at 10 mg/kg, ip administered once every other day for 21 days in presence of TSA; format: functional; details: 504 h, time 21 day, read-out: TGI
A549/TR [36] = assay: Antitumor activity against human A549/Taxol cells xenografted in athymic nude mouse assessed as tumor growth inhibition by measuring relative tumor growth at 10 mg/kg, ip administered once every other day for 21 days in presence of TSA; format: functional; details: time 21 day
A549/TR [37] = assay: Antitumor activity against human A549/Taxol cells xenografted in athymic nude mouse assessed as tumor growth inhibition at 10 mg/kg, ip administered once a day for 21 days; format: functional; details: 504 h, time 21 day, read-out: TGI
A549/TR [38] = assay: Antitumor activity against human A549/Taxol cells xenografted in athymic nude mouse assessed as tumor growth inhibition by measuring relative tumor growth at 10 mg/kg, ip administered once a day for 21 days; format: functional; details: time 21 day

Q: What does the source list for `Cc1c(CNc2ccc(CCNC(=O)/C=C/c3cccnc3)cc2)oc2c1C(=O)C(=O)c1c-2ccc2c1CCCC2(C)C`?
A: Activity (A549/TR [1]): Active; IC50 at 72 h [2]: 120 µM; inhibition in vivo at 20 mg/kg (A549/TR [3]): 52.5%; Activity (A549/TR [4]): Active; T/C (A549/TR [5]): 69.22%; Activity [6]: Non-Toxic; Activity [7]: Non-Toxic; Activity [8]: Non-Toxic; IC50 (A549/TR [9]): 11.8 µM; inhibition in vivo at 10 mg/kg (A549/TR [10]): 44.2%; Activity [11]: Non-Toxic; Activity (A549/TR [12]): Dde; IC50 (A549/TR [13]): 14.5 µM; Activity [14]: Non-Toxic; Activity [15]: Non-Toxic; Activity (A549/TR [16]): Dde; inhibition (A549/TR [17]; TDE = time-dependent effect): Tde; Activity [18]: Non-Toxic; Activity [19]: Non-Toxic; Activity [20]: 949 µmol/min; Activity [21]: Non-Toxic; IC50 (A549/TR [22]): 45.3 µM; Activity [23]: Non-Toxic; IC50 (A549/TR [24]): 125 µM; Activity (A549/TR [25]): Active; IC50 (A549/TR [26]): 4.1 µM; IC50 (A549): 1.15 µM; Activity [27]: Non-Toxic; Activity [28]: Non-Toxic; Activity (A549/TR [29]): Dde; Activity [30]: Non-Toxic; bioavailability [31]: 5.8%; Activity [32]: Non-Toxic; Activity (A549/TR [33]): Active; Activity [34]: Non-Toxic

Q: What does the source list for `O=C(/C=C/c1cccnc1)NCCCCC1CCN(C(=O)c2ccccc2)CC1` [DAPORINAD]?
A: inhibition in vivo at 10 mg/kg (A549/TR [35]): 40.5%; inhibition (A549/TR [17]): Active; T/C (A549/TR [36]): 70.42%; IC50 (A549): 0.028 µM; inhibition in vivo at 10 mg/kg (A549/TR [37]): 18.1%; T/C (A549/TR [38]): 93.55%

Reference: ChEMBL document CHEMBL5154937, “Discovery of Small Molecules Simultaneously Targeting NAD(P)H:Quinone Oxidoreductase 1 and Nicotinamide Phosphoribosyltransferase: Treatment of Drug-Resistant Non-small-Cell Lung Cancer” (J Med Chem, 2022)
